Values joined by “and” are separate entries in the source; they are usually repeats but may differ in a detail not shown here. Equal entries are not always repeated.
Columns and labels:
[1] = tested on: embryonic stages of S. digitata; assay: Intra cellular expression of CED-3 protein, flow cytometry; assay type: cell-based, Setaria digitata; settings: 24 hr
Protocol: Adult female filarial worms Setaria digitata were collected from the peritoneum of cattle, slaughtered at a nearby abattoir in sterile Hanks Balanced Salt Solution (HBSS) medium (Sigma H 2387-1L) and transported to the laboratory in a sterile container. The medium containing 1% glucose (Sigma G 7528), Penicillin 100 units/ml, Streptomycin 100 μg/ml (Sigma P 4333). And Amphotericin-B 0.25 μg/ml (Sigma A 2942) was buffered with NaHCO3 (Sigma S 5761). About 5 to 7 worms were taken in a petridish, washed three times in medium, dissected into small pieces in 10 ml of medium under sterile conditions and incubated at 37° C. for 30 minutes to allow the release of embryonic stages (eggs and microfilariae) into the medium. The embryonic stages were harvested into sterile 15 ml. centrifuge tubes and washed three times by centrifuging at 300 g for 10 minutes each with medium and the final pellet was suspended in 1 ml. of RPMI-1640 medium (Sigma R 8005) supplemented with 10% FBS (Sigma F 2442) The number of embryonic stages of S. digitata in the above preparation were counted using light microscope, and the suspension was taken in RPMI-1640 medium containing 10% FBS at 1×10^5 embryonic stages/ml. One ml. each was dispensed into individual wells of a 24 well tissue culture plate. One set of wells was taken as untreated control containing only medium with 10% FBS. […] Motility of the Mf was scored under an inverted microscope. After appropriate treatment and incubation, each set of the cultured embryonic stages of S. digitata were harvested from the 24 well tissue culture plate separately in 15 ml. sterile centrifuge tubes, washed with PBS twice and stained as per requirement following manufacturer's instructions as described below. This was followed by two times washing with PBS and final suspension of the stained embryonic stages was taken in 0.5 ml of sheath fluid (BD Biosciences 342003) before their acquisition in the flow cytometer (BD FACS Calibur, Becten and Dickinson, USA). Analysis was performed on 10,000-acquired events depicted as Dot Plots and Histogram Plots using Cellquest Pro soft ware. All plots were representative of at least 3 experiments. The distinctly clustered populations obtained consistently in the Dot plots for the intra uterine embryonic stages of S. digitata (FIG. 1 a) were gated for Mfs (R-1) and eggs (R-2 and R-3) and analyzed for different assays for apoptosis as described below. After in vitro culture for 24 hours with apoptosis inducing reagents the embryonic stages were harvested in 15 ml, sterile centrifuge tubes and fixed for 60 minutes at 0° C. in 1% paraformaldehyde (Sigma P 6148) in PBS. The suspension was washed first with PBS and then with 1× permeabilisation buffer (eBioscience 00-8333-56) and finally resuspended in 100 μl of 1× permeabilisation buffer at 1×10^5 embryonic stages per ml. The intra cellular expression of CED-3 was scored by incubation of the fixed and permeabilised embryonic stages with primary goat antibodies—anti CED-3 (Santacruz sc-9192) followed by Probing with PE conjugated secondary anti goat IgG-PE (Santacruz sc-3747) antibodies. Incubation of both primary and secondary antibodies (both 1/100 diluted) was done successively in 1× permeabilisation buffer (e Bioscience 00-8333-56) for 1 hr and 45 minutes respectively. The suspension of stained embryonic stages was then washed with PBS twice and finally reading was taken by flow cytometry.

[2] = tested on: embryonic stages of S. digitata; assay: Intra cellular expression of CED-4 protein, flow cytometry; assay type: cell-based, Setaria digitata; settings: 24 hr
Protocol: Adult female filarial worms Setaria digitata were collected from the peritoneum of cattle, slaughtered at a nearby abattoir in sterile Hanks Balanced Salt Solution (HBSS) medium (Sigma H 2387-1L) and transported to the laboratory in a sterile container. The medium containing 1% glucose (Sigma G 7528), Penicillin 100 units/ml, Streptomycin 100 μg/ml (Sigma P 4333). And Amphotericin-B 0.25 μg/ml (Sigma A 2942) was buffered with NaHCO3 (Sigma S 5761). About 5 to 7 worms were taken in a petridish, washed three times in medium, dissected into small pieces in 10 ml of medium under sterile conditions and incubated at 37° C. for 30 minutes to allow the release of embryonic stages (eggs and microfilariae) into the medium. The embryonic stages were harvested into sterile 15 ml. centrifuge tubes and washed three times by centrifuging at 300 g for 10 minutes each with medium and the final pellet was suspended in 1 ml. of RPMI-1640 medium (Sigma R 8005) supplemented with 10% FBS (Sigma F 2442) The number of embryonic stages of S. digitata in the above preparation were counted using light microscope, and the suspension was taken in RPMI-1640 medium containing 10% FBS at 1×10^5 embryonic stages/ml. One ml. each was dispensed into individual wells of a 24 well tissue culture plate. One set of wells was taken as untreated control containing only medium with 10% FBS. […] Motility of the Mf was scored under an inverted microscope. After appropriate treatment and incubation, each set of the cultured embryonic stages of S. digitata were harvested from the 24 well tissue culture plate separately in 15 ml. sterile centrifuge tubes, washed with PBS twice and stained as per requirement following manufacturer's instructions as described below. This was followed by two times washing with PBS and final suspension of the stained embryonic stages was taken in 0.5 ml of sheath fluid (BD Biosciences 342003) before their acquisition in the flow cytometer (BD FACS Calibur, Becten and Dickinson, USA). Analysis was performed on 10,000-acquired events depicted as Dot Plots and Histogram Plots using Cellquest Pro soft ware. All plots were representative of at least 3 experiments. The distinctly clustered populations obtained consistently in the Dot plots for the intra uterine embryonic stages of S. digitata (FIG. 1 a) were gated for Mfs (R-1) and eggs (R-2 and R-3) and analyzed for different assays for apoptosis as described below. After in vitro culture for 24 hours with apoptosis inducing reagents the embryonic stages were harvested in 15 ml. sterile centrifuge tubes and fixed for 60 minutes at 0° C. in 1% paraformaldehyde (Sigma P 6148) in PBS. The suspension was washed first with PBS and then with 1× permeabilisation buffer (eBioscience 00-8333-56) and finally resuspended in 100 μl of 1× permeabilisation buffer at 1×10^5 embryonic stages per ml. The intracellular expression of CED-4 was scored by incubation of the fixed and permeabilised embryonic stages with primary goat antibodies—anti CED-4 (Santacruz sc-9193) followed by probing with PE conjugated secondary anti goat IgG-PE (Santacruz sc-3747) antibodies. Incubation of both primary and secondary antibodies (both 1/100 diluted) was done successively in 1× permeabilisation buffer (e Bioscience 00-8333-56) for 1 hr and 45 minutes respectively. The suspension of stained embryonic stages was then washed with PBS twice and finally reading was taken by flow cytometry or confocal microscopy.

SMILES | GMI (Geometric Mean Intensity) of Fluorescence, CED-3 Expression ([1]; Eggs, 10 μM) | GMI (Geometric Mean Intensity) of Fluorescence, CED-3 Expression ([1]; Microfilariae, 10 μM) | GMI (Geometric Mean Intensity) of Fluorescence, CED-4 Expression ([2]; Eggs, 10 μM) | GMI (Geometric Mean Intensity) of Fluorescence, CED-4 Expression ([2]; Microfilariae, 10 μM) | GMI (Geometric Mean Intensity) of Fluorescence, CED-3 Expression ([1]; Eggs, 1 μM) | GMI (Geometric Mean Intensity) of Fluorescence, CED-3 Expression ([1]; Microfilariae, 1 μM) | GMI (Geometric Mean Intensity) of Fluorescence, CED-4 Expression ([2]; Eggs, 1 μM) | GMI (Geometric Mean Intensity) of Fluorescence, CED-4 Expression ([2]; Microfilariae, 1 μM)
OO [H2O2] | 98.25 and 100.22 and 97.56 | 10.99 and 12.38 and 9.95 | 99.36 and 100.32 and 95.29 | 15.72 and 17.33 and 16.26 |  |  |  | 
CC1=CC(=O)c2c(O)cccc2C1=O [Plumbagin] | 205.26 and 207.37 and 200.17 | 32.75 and 34.96 and 31.33 | 209.76 and 213.57 and 210.32 | 35.97 and 38.27 and 33.39 |  |  |  | 
CN[C@@H]1C[C@H]2O[C@@](C)([C@@H]1OC)n1c3ccccc3c3c4c(c5c6ccccc6n2c5c31)C(=O)NC4 [Staurosporine] |  |  |  |  | 92.71 and 96.07 and 90.32 | 8.33 and 8.10 and 7.39 | 95.67 and 97.28 and 96.32 | 9.01 and 9.92 and 8.25

— patent publication US20110124523A1, “High Throughput Method for Detecting Apoptosis of Embryonic Stages of Metazoan Helminthic Parasites” (INSTITUTE OF LIFE SCIENCES, priority 2009, published 2011)
